This is an account of results in patent publication US9586956B2, “Isoquinoline and naphthyridine derivatives” (Genentech, Inc., priority 2012, dated 2017).

The target of the experiment is T1, purified human MAP4K4 kinase domain (Homo sapiens, UniProt O95819).
T1 construct: purified human MAP4K4 kinase domain
T1 sequence (O95819 25-289 limits assumed): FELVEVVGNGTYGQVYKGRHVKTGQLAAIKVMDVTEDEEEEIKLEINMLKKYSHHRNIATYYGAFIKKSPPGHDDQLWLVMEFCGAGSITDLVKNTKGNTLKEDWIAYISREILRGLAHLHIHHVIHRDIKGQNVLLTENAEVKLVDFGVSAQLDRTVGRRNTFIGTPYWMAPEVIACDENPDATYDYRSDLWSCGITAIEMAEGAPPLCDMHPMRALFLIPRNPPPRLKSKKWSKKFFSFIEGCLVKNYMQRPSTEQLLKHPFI
The experiment is described as follows: MAP4K4 Inhibition Assay Protocol No. 1 (Caliper LabChip, moesin-derived peptide phosphorylation). Type of experiment: biochemical. The note with it: Assay 1; 1 nM enzyme, 10 uM ATP, 45 min. As to the method: The kinase activity of purified human MAP4K4 kinase domain was measured by monitoring the phosphorylation of a peptide substrate derived from moesin protein (Leu-Gly-Arg-Asp-Lys-Tyr-Lys-Thr-Leu-Arg-Gln-Ile-Arg-Gln) fluorescently labeled on the N-terminus with 5-carboxyfluorescein using the Caliper LabChip technology (Caliper Life Sciences, Hopkinton, Mass.). To determine inhibition constants (IC50), compounds were serially diluted in DMSO and added to 10 uL kinase reactions containing 1 nM purified MAP4K4 enzyme, 1 uM peptide substrate, 10 uM ATP, 10 mM MgCl2, 1 mM EGTA, 50 mM Hepes pH 7.2, 1 mM DTT, 0.01% Triton X-100, and 2% DMSO. Reactions were incubated at room temperature in Perkin Elmer Proxiplates for 45 minutes and stopped by the addition of 10 uL of an EDTA-containing solution (50 mM Hepes pH 7.2, 40 mM EDTA, 0.02% Triton X-100). The fraction of phosphorylated peptide was determined as a fraction of total peptide substrate using the Caliper Lab Chip 3000 according to the manufacturer's instructions. IC50 values were determined using the four-parameter non-linear fit model.
What is called IC50 is the concentration needed to halve the response being measured. For “1-amino-7-(3-fluorophenyl)- N-(4-hydroxycyclohexyl) isoquinoline-4-carboxamide [Example 113]”, 0.0565 µM corresponded to half-maximal inhibition (IC50).

As for “1-amino-N-[2-(3,5-dimethyl- pyrazol-1-yl)ethyl]-7- (3-fluorophenyl) isoquinoline-4-carboxamide [Example 79]”, the IC50 is 1.4 µM.

The compound `CN(C)C(=O)c1nc(CNC(=O)c2cnc(N)c3cc(-c4cccc(F)c4)ccc23)no1` [Example 1, 3-[[[1-amino-7-(3-fluorophenyl)isoquinoline-4-carbonyl]amino]methyl]-N,N-dimethyl-1,2,4-oxadiazole-5-carboxamide] registered an IC50 of 0.122 µM.

Compound `Nc1ncc(-c2nc3ccccc3[nH]2)c2ccc(-c3cccc(F)c3)cc12` [Example 2, 4-(1H-benzimidazol-2-yl)-7-(3-fluorophenyl)isoquinolin-1-amine] yielded an IC50 of 0.299 µM.

Take `Nc1ncc(C(=O)NC2CC(O)C2)c2ccc(-c3cccc(F)c3)cc12` (centres unmarked) [Example 3, 1-amino-7-(3-fluorophenyl)-N-(3-hydroxycyclobutyl)isoquinoline-4-carboxamide]: it took 0.0388 µM to reach half-maximal inhibition (IC50).

As to `N#Cc1cnc(N)c2cc(-c3cccc(F)c3)ccc12` [Example 4, 1-amino-7-(3-fluorophenyl)isoquinoline-4-carbonitrile], the IC50 turned out to be 0.0221 µM.

The compound `NCc1cnc(N)c2cc(-c3cccc(F)c3)ccc12` [Example 5, 4-(aminomethyl)-7-(3-fluorophenyl)isoquinolin-1-amine] returned an IC50 of 1.2 µM.

Compound `CC(=O)N1CC(NC(=O)c2cnc(N)c3cc(-c4cccc(F)c4)ccc23)C1` [Example 9, N-(1-acetylazetidin-3-yl)-1-amino-7-(3-fluorophenyl)isoquinoline-4-carboxamide] returned an IC50 of 0.0506 µM.

Regarding `Nc1ncc(C(=O)NC2CC2)c2ccc(-c3cccc(F)c3)nc12` [Example 13, 8-amino-N-cyclopropyl-2-(3-fluorophenyl)-1,7-naphthyridine-5-carboxamide], 0.00129 µM corresponded to half-maximal inhibition (IC50).

The compound `Nc1ncc(C(=O)NCCN2CCOCC2)c2ccc(-c3cccc(F)c3)cc12` [Example 45, 1-amino-7-(3-fluorophenyl)-N-(2-morpholinoethyl) isoquinoline-4-carboxamide] displayed an IC50 of 0.0841 µM.

`CN(C)CCNC(=O)c1cnc(N)c2cc(-c3cccc(F)c3)ccc12` [Example 46, 1-amino-N-[2-(dimethylamino)ethyl]-7-(3-fluorophenyl) isoquinoline-4-carboxamide]: the IC50 is 2.4 µM.

In turn, `Nc1ncc(C(=O)NCCN2CCCC2)c2ccc(-c3cccc(F)c3)cc12` [Example 47, 1-amino-7-(3-fluorophenyl)-N-(2-pyrrolidin-1-ylethyl)isoquinoline-4-carboxamide] registered an IC50 of 1.6 µM.

Compound `CS(=O)(=O)N1CCN(C(=O)c2cnc(N)c3cc(-c4cccc(F)c4)ccc23)CC1` [Example 48, [1-amino-7-(3-fluorophenyl)-4-isoquinolyl]-(4-methylsulfonylpiperazin-1-yl)methanone] showed an IC50 of 4.2 µM.

The compound `CC(=O)N1CCN(C(=O)c2cnc(N)c3cc(-c4cccc(F)c4)ccc23)CC1` [Example 49, 1-[4-[1-amino-7-(3-fluorophenyl)isoquinoline-4-carbonyl]piperazin-1-yl] ethanone] showed an IC50 of 2.6 µM.

On to `NC(=O)C1CCN(C(=O)c2cnc(N)c3cc(-c4cccc(F)c4)ccc23)CC1` [Example 50, 1-[1-amino-7-(3-fluorophenyl)isoquinoline-4-carbonyl] piperidine-4-carboxamide], for which the IC50 was found to be 1.5 µM.

The compound `NC(=O)C1CCCN(C(=O)c2cnc(N)c3cc(-c4cccc(F)c4)ccc23)C1` (centres unmarked) [Example 51, 1-[1-amino-7-(3-fluorophenyl)isoquinoline-4-carbonyl] piperidine-3-carboxamide] registered an IC50 of 2 µM.

As for `CN(C)C(=O)CN1CCN(C(=O)c2cnc(N)c3cc(-c4cccc(F)c4)ccc23)CC1` [Example 52, 2-[4-[1-amino-7-(3-fluorophenyl)isoquinoline-4-carbonyl]piperazin-1-yl]-N,N-dimethyl-acetamide], it took 1.5 µM to reach half-maximal inhibition (IC50).

`Nc1ncc(C(=O)NCCS(=O)(=O)N2CCCC2)c2ccc(-c3cccc(F)c3)cc12` [Example 53, 1-amino-7-(3-fluorophenyl)-N-(2-pyrrolidin-1-ylsulfonylethyl) isoquinoline-4-carboxamide]: the IC50 was 0.388 µM.

`COCc1ccc(NC(=O)c2cnc(N)c3cc(-c4cccc(F)c4)ccc23)cc1` [Example 54, 1-amino-7-(3-fluorophenyl)-N-[4-(methoxymethyl)phenyl]isoquinoline-4-carboxamide] returned an IC50 of 0.0175 µM.

In the case of `Nc1ncc(C(=O)N2CCC(CO)CC2)c2ccc(-c3cccc(F)c3)cc12` [Example 55, [1-amino-7-(3-fluorophenyl)-4-isoquinolyl]-[4-(hydroxy-methyl)-1-piperidyl] methanone], the IC50 came to 0.622 µM.

In turn, `Nc1ncc(C(=O)NCC2CCOCC2)c2ccc(-c3cccc(F)c3)cc12` [Example 56, 1-amino-7-(3-fluorophenyl)-N-(tetrahydropyran-4-ylmethyl)isoquinoline-4-carboxamide] gave an IC50 of 0.249 µM.

Take `CC(=O)N1CCC(NC(=O)c2cnc(N)c3cc(-c4cccc(F)c4)ccc23)CC1` [Example 57, N-(1-acetyl-4-piperidyl)-1-amino-7-(3-fluorophenyl) isoquinoline-4-carboxamide]: the IC50 was 0.102 µM.

Regarding `Nc1ncc(C(=O)NCCN2CCCCC2=O)c2ccc(-c3cccc(F)c3)cc12` [Example 58, 1-amino-7-(3-fluorophenyl)-N-[2-(2-oxo-1-piperidyl)ethyl]isoquinoline-4-carboxamide], the IC50 is 0.146 µM.

On to `Nc1ncc(C(=O)NCC2CCOC2)c2ccc(-c3cccc(F)c3)cc12` (centres unmarked) [Example 59, 1-amino-7-(3-fluorophenyl)-N-(tetrahydrofuran-3-ylmethyl)isoquinoline-4-carboxamide], for which the IC50 came to 0.0999 µM.

Compound `CNC(=O)C1CN(C(=O)c2cnc(N)c3cc(-c4cccc(F)c4)ccc23)CCO1` (centres unmarked) [Example 60, 4-[1-amino-7-(3-fluorophenyl)isoquinoline-4-carbonyl]-N-methyl-morpholine-2-carboxamide] had an IC50 of 0.238 µM.

`NC(=O)c1nc(CNC(=O)c2cnc(N)c3cc(-c4cccc(F)c4)ccc23)no1` [Example 61, 3-[[[1-amino-7-(3-fluorophenyl)isoquinoline-4-carbonyl]amino]methyl]-1,2,4-oxadiazole-5-carboxamide] returned a half-inhibitory concentration (IC50) of 0.0368 µM.

`Nc1ncc(C(=O)Nc2ccccc2)c2ccc(-c3cccc(F)c3)cc12` [Example 62, 1-amino-7-(3-fluorophenyl)-N-phenyl-isoquinoline-4-carboxamide] had an IC50 of 0.0338 µM.

Compound `Nc1ncc(C(=O)Nc2ccc(CO)cc2)c2ccc(-c3cccc(F)c3)cc12` [Example 63, 1-amino-7-(3-fluorophenyl)-N-[4-(hydroxymethyl)phenyl]isoquinoline-4-carboxamide] had an IC50 of 0.0127 µM.

In the case of `Nc1ncc(C(=O)NCCCN2CCOCC2)c2ccc(-c3cccc(F)c3)cc12` [Example 64, 1-amino-7-(3-fluorophenyl)-N-(3-morpholinopropyl) isoquinoline-4-carboxamide], the IC50 is 0.34 µM.
